Earlier results, collected in patent US6027728A, “Herbal skin regeneration composition and method” (priority 1998, dated 2000).

Test system: Na+,K(+)-ATPase

SMILES | inhibition of Na+,K(+)-ATPase activity (in words) | inhibition mode with respect to ATP (with respect to ATP)
C[C@]12C[C@@H](O)[C@@H]3C[C@@]1(O[C@@H]1O[C@H](CO)[C@@H](O)[C@H](O)[C@H]1O)[C@@]3(COC(=O)c1ccccc1)C(=O)O2 [albiflorin] | ineffective | 
C[C@@]12C[C@@]3(O)O[C@@H](O1)[C@]1(COC(=O)c4ccc(O)cc4)[C@H]3C[C@@]12O[C@@H]1O[C@H](CO)[C@@H](O)[C@H](O)[C@H]1O [oxypaeoniflorin] | ineffective | 
O=C(OC[C@H]1O[C@@H](OC(=O)c2cc(O)c(O)c(O)c2)[C@H](OC(=O)c2cc(O)c(O)c(O)c2)[C@@H](OC(=O)c2cc(O)c(O)c(O)c2)[C@@H]1OC(=O)c1cc(O)c(O)c(O)c1)c1cc(O)c(O)c(O)c1 [PGG, 1,2,3,4,6-Penta-O-galloyl-beta-D-glucose] |  | noncompetitive
C[C@@]12C[C@@]3(O)O[C@@H](O1)[C@]1(COC(=O)c4ccccc4)[C@H]3C[C@@]12O[C@@H]1O[C@H](CO)[C@@H](O)[C@H](O)[C@H]1O [paeoniflorin] | ineffective | 
Oc1cc(O)c2c(c1)OC(c1ccc(O)c(O)c1)C(O)C2 (stereo not drawn) [catechin] | weakly inhibitory | 
COc1ccc(C(C)=O)c(O)c1 [paconol] | ineffective | 
C[C@@]12C[C@@]3(O)O[C@@H](O1)[C@]1(COC(=O)c4ccccc4)[C@H]3C[C@@]12O[C@@H]1O[C@H](COC(=O)c2cc(O)c(O)c(O)c2)[C@@H](O)[C@H](O)[C@H]1O [galloylpaeoniflorin] | weakly inhibitory | 
O=C(O)c1ccccc1 [benzoic acid] | weakly inhibitory | 
Oc1ccccc1 [phenol] | ineffective | 
